Experimental data published in ChEMBL document CHEMBL1141139 (J Med Chem, 2005).

Tests used:
[1] = Lethal dose against rodents; Range = 1200-10e4 nmol/kg; assay type: toxicity; conditions: rodentia
[2] = target: T1, Neuronal acetylcholine receptor; alpha3/beta4 (Rattus norvegicus, UniProt P04757+P12392); assay: Effective concentration against alpha3-beta4 nicotinic acetylcholine receptor (nAChR) expressed in IMR32 cell; assay type: cell-based, IMR-32
[3] = target: Neuronal acetylcholine receptor; alpha4/beta2 (Rattus norvegicus, UniProt P09483+P12390); assay: Displacement of [3H]-cytisine from Alpha4-beta2 Nicotinic acetylcholine receptor of rat brain homogenates; assay type: tissue-based
[4] = Lethal dose against rodents; Range = 1200-10e4; assay type: toxicity; conditions: rodentia
[5] = target: T1, Neuronal acetylcholine receptor; alpha3/beta4; assay: Displacement of [3H]epibatidine from Alpha3 Beta4 Nicotinic acetylcholine receptor of rat brain homogenates
[6] = Lethal dose against rodents; assay type: toxicity; conditions: rodentia
[7] = Lethal dose against rodents; Range = 12-120 nmol/kg; assay type: toxicity; conditions: rodentia, in vivo
[8] = target: T1, Neuronal acetylcholine receptor; alpha3/beta4; assay: Effective concentration against alpha3-beta4 nicotinic acetylcholine receptor (nAChR) expressed in Xenopus oocytes; assay type: cell-based, Oocyte
[9] = Lethal dose against rodents; Range = 7-67 nmol/kg; assay type: toxicity; conditions: rodentia, in vivo
[10] = target: T1, Neuronal acetylcholine receptor; alpha3/beta4; assay: Effective concentration against alpha3-beta4 Nicotinic acetylcholine receptor (nAChR); assay type: protein-complex assay
[11] = Lethal dose against rodents; Range = 1.37e5 nmol/kg; assay type: toxicity; conditions: rodentia
[12] = Lethal dose against rodents; Range = 1.38e7 nmol/kg; assay type: toxicity; conditions: rodentia

Neuronal acetylcholine receptor; alpha4/beta2, sequence (P09483 whole entry): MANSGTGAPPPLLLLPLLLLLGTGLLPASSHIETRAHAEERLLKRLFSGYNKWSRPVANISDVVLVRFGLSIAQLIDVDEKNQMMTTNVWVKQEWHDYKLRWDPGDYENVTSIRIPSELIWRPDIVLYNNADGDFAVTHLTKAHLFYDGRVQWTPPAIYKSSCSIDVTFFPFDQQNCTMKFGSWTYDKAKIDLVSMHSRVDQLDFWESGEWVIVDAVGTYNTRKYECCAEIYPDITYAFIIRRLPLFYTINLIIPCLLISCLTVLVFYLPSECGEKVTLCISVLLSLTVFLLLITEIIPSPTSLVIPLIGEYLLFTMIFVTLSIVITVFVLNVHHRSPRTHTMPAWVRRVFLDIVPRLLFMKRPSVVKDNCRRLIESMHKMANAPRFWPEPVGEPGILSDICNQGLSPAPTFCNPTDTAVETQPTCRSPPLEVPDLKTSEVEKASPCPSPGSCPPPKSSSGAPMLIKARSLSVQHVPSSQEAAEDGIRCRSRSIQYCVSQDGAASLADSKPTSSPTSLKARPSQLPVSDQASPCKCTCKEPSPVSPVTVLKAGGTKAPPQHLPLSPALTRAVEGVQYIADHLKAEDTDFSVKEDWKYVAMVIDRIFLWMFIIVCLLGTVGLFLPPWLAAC
Neuronal acetylcholine receptor; alpha4/beta2, sequence (P12390 whole entry): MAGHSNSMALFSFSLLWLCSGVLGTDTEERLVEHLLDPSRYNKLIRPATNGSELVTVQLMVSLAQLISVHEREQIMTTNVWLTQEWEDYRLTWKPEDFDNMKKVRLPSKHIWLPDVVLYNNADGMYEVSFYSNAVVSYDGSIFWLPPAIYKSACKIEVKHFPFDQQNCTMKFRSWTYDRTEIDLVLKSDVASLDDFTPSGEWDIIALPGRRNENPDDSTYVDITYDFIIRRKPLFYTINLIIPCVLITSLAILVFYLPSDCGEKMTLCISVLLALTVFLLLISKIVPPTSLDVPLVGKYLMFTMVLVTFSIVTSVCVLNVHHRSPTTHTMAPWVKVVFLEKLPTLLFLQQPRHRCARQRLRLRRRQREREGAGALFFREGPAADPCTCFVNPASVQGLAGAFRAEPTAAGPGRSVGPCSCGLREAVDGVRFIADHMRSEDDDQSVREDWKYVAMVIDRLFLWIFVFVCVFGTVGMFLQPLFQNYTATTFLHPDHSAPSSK
T1 sequence (P04757 whole entry): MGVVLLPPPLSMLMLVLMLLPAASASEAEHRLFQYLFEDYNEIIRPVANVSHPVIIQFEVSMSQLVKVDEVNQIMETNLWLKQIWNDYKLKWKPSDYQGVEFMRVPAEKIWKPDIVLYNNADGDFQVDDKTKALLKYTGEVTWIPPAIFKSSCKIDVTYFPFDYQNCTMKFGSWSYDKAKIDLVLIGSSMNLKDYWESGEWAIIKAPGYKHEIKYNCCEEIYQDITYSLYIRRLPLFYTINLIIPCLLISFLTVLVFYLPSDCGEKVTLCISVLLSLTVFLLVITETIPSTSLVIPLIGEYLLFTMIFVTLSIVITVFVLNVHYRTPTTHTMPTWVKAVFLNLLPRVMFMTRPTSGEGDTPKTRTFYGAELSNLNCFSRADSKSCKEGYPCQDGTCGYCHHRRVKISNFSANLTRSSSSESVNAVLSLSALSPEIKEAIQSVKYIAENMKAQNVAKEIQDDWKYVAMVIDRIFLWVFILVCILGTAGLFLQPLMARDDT
T1 sequence (P12392 whole entry): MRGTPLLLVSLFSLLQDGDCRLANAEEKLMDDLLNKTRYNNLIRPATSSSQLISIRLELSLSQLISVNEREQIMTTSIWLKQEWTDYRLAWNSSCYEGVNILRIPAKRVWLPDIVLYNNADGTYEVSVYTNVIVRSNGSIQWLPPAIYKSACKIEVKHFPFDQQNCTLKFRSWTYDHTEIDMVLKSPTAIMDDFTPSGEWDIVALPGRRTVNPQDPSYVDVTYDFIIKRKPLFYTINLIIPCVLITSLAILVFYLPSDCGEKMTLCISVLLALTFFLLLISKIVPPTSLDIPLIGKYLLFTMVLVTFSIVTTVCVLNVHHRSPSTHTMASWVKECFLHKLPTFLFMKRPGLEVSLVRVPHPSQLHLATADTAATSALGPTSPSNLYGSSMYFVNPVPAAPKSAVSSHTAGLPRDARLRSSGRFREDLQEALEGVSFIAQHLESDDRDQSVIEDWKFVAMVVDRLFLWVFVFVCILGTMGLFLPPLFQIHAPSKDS

Compound: CN1CCCC1COc1cccnc1 (configuration not stated)
- LD50 [1]: 100 µmol/kg
- EC50 [2]: 63000 nM
- Ki [3]: 0.15 nM

Compound: c1cncc(OCC2CCN2)c1 (configuration not stated)
- LD50 [4]: 100 µmol/kg
- Ki [5]: 73.6 nM
- Ki [3]: 0.05 nM

Compound: CN1CCCC1COc1ccc(Cl)nn1 (configuration not stated)
- Ki [3]: 29 nM

Compound: CN1CCCC1COc1cnccn1 (configuration not stated)
- Ki [3]: 16.3 nM

Compound: CN1CCCC1COc1ccccn1 (configuration not stated)
- Ki [3]: 495 nM

Compound: CN1C2C=C(c3cccnc3)CC1CC2 (configuration not stated)
- LD50 [6]: 0.25 µmol/kg

Compound: c1cncc(C2CC3CCC2N3)c1 (single isomer, unassigned; (+)) [DESCHLOROEPIBATIDINE]
- LD50 ([7]; read-out: LD50): 0.12 µmol/kg
- EC50 [8]: 510 nM
- Ki [3]: 0.064 nM

Compound: c1cncc(C2CC3CCC2N3)c1 (single isomer, unassigned; (-)) [DESCHLOROEPIBATIDINE]
- LD50 [7]: 0.12 µmol/kg
- EC50 [8]: 250 nM
- Ki [3]: 0.015 nM

Compound: Clc1ccc([C@@H]2C[C@H]3CC[C@@H]2N3)cn1 [(+)-EPIBATIDINE]
- LD50 [9]: 0.067 µmol/kg

Compound: Cc1cc([C@@H]2CCCN2C)on1 [ABT-418]
- EC50 [10]: 209000 nM
- LD50 [11]: 137 µmol/kg
- Ki [3]: 4 nM

Compound: CC(=O)OCC[N+](C)(C)C [ACETYLCHOLINE]
- LD50 [12]: 13800 µmol/kg

Compound: Clc1ccc(C2CC3CCC2N3)cn1 (configuration not stated) [EPIBATIDINE]
- LD50 [9]: 0.067 µmol/kg
